Assay results published in patent US20130143929A1, “FUNGICIDAL IMIDAZOLES” (EI DU PONT DE NEMOURS AND COMPANY, priority 2010, published 2013).
Marks after values point to notes of the source that are not given here.

Experiments:
Type in all cases: in vivo
[1] = tested on: Botrytis cinerea (the causal agent of tomato Botrytis); assay: Test C: tomato Botrytis, preventive spray on tomato seedlings, visual disease rating; details: for Test C rating (100 = 100% disease control, 0 = no disease control relative to the controls): tomato Botrytis, preventive spray on tomato seedlings
Summary of the method: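 Test suspension (acetone/water with 250 ppm Trem 014; 200 ppm equivalent to 800 g/ha) sprayed to run-off on tomato seedlings; B. cinerea spores inoculated next day. After 48 h saturated humidity at 20° C then 3 days at 24° C, disease rated visually as % control relative to untreated controls (0–100).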

[2] = tested on: Septoria tritici (the causal agent of wheat leaf blotch); assay: Test B: wheat leaf blotch, preventive spray on wheat seedlings, visual disease rating; details: for Test B rating (100 = 100% disease control, 0 = no disease control relative to the controls): wheat leaf blotch, preventive spray on wheat seedlings
Summary of the method: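 Wheat seedlings sprayed to run-off with compound suspension (acetone/water with 250 ppm Trem 014; 200 ppm ≈ 800 g/ha, some at 40 ppm), inoculated next day with Septoria tritici spores. 48 h saturated humidity at 24 °C, then 19 days at 20 °C; visual rating, 100 = full control.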

[3] = tested on: Blumeria graminis f. sp. tritici (also known as Erysiphe graminis f. sp. tritici, the causal agent of wheat powdery mildew); assay: Test D: wheat powdery mildew, preventive spray on wheat seedlings, visual disease rating; details: for Test D rating (100 = 100% disease control, 0 = no disease control relative to the controls): wheat powdery mildew, preventive spray on wheat seedlings
Summary of the method: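 Compound suspended in acetone/water (50/50) with 250 ppm Trem 014 and sprayed to run-off on wheat seedlings (200 ppm ≈ 800 g/ha), then inoculated next day with spore dust. Disease rated visually after 8 days at 20 °C as % control relative to untreated plants (0-100).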

[4] = tested on: Puccinia recondite f. sp. tritici (the causal agent of wheat leaf rust); assay: Test A: wheat leaf rust, preventive spray on wheat seedlings, visual disease rating; details: for Test A rating (100 = 100% disease control, 0 = no disease control relative to the controls): wheat leaf rust, preventive spray on wheat seedlings
Summary of the method: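 Wheat seedlings were sprayed to run-off with compound suspended in acetone/water containing 250 ppm Trem 014 (200 ppm ≈ 800 g/ha; some at 40 ppm). Puccinia recondite spores were inoculated the next day. Plants were held 24 h saturated at 20° C, then 7 days at 20° C, and disease control was rated visually on a 0–100 scale against controls.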

[5] = no asterisk (standard test suspension concentration, not 40 ppm)
[6] = asterisk: 40 ppm test suspension
[7] = no asterisk: standard test suspension concentration, 100 = 100% disease control, 0 = no control relative to controls

Row | Compound | Test C rating (100 = 100% disease control, 0 = no disease control relative to the controls) [1, 5] [%] | Test B rating (100 = 100% disease control, 0 = no disease control relative to the controls) [2, 5] [%] | Test D rating (100 = 100% disease control, 0 = no disease control relative to the controls) [3, 5] [%] | Test A rating (100 = 100% disease control, 0 = no disease control relative to the controls) [4, 5] [%] | Test C rating (100 = 100% disease control, 0 = no disease control relative to the controls) [1, 6] | Test B rating (100 = 100% disease control, 0 = no disease control relative to the controls) [2, 6] | Test D rating (100 = 100% disease control, 0 = no disease control relative to the controls) [3, 6] | Test A rating (100 = 100% disease control, 0 = no disease control relative to the controls) [4, 6] | also measured
1 | Cc1nc(Cl)n(-c2ccc(F)cc2F)c1C(O)c1ccc(F)cc1F (centres unmarked) [compound 162] | 100 | 100 | 98 | 100 |  |  |  |  | 
2 | OC(c1ccc(Cl)cc1)c1c(Cl)nc(Cl)n1-c1ccc(F)cc1Cl (single isomer, unassigned) [compound 48] | 100 | 100 | 85 | 100 |  |  |  |  | 
3 | OC(c1ccc(F)cc1F)c1c(Cl)nc(Cl)n1-c1ccc(F)cc1F (single isomer, unassigned) [compound 78] | 99 | 100 | 82 | 100 |  |  |  |  | 
4 | OC(c1ccc(F)cc1F)c1c(Br)nc(Cl)n1-c1c(F)cc(Cl)cc1F (centres unmarked) [compound 124] |  |  |  |  | 100* % | 100* % | 0* % | 100* % | 
5 | Cc1nc(Cl)c(C(O)c2ccc(C#N)cc2F)n1-c1c(F)cccc1F (centres unmarked) [compound 180] |  |  |  |  | 0* % | 48* % | 0* % | 0* % | 
6 | COc1ccc(C(O)c2c(Br)nc(C)n2-c2c(F)cc(F)cc2Cl)c(F)c1 (centres unmarked) [compound 347] |  |  |  |  | 82* % | 100* % | 69* % | 100* % | 
7 | Cc1ncc(C(O)c2ccc(F)cc2F)n1-c1ccc(F)cc1Br (centres unmarked) [compound 321] |  |  |  |  | 0* % | 0* % | 0* % | 0* % | 
8 | Cc1nc(Br)c(C(O)c2ccc(Cl)cc2)n1-c1ccc(F)cc1Br (centres unmarked) [compound 172] | 100 | 100 | 90 | 100 |  |  |  |  | 
9 | Cc1ncc(C(O)c2cccnc2)n1-c1c(F)cc(F)cc1F (centres unmarked) [compound 181] | 0 | 1 | 0 | 0 |  |  |  |  | 
10 | OC(c1ccc(F)cc1F)c1c(Br)nc(Br)n1-c1c(F)cc(Cl)cc1F (centres unmarked) [compound 123] |  |  |  |  | 95* % | 100* % | 0* % | 98* % | 
11 | COc1ccc(-n2c(Cl)nc(Cl)c2C(O)c2ccc(F)cc2Cl)c(F)c1 (centres unmarked) [compound 319] |  |  |  |  | 99* % | 100* % | 0* % | 100* % | 
12 | Cc1nc(Br)c(C(O)c2c(F)cccc2F)n1-c1ccc(F)cc1Cl (centres unmarked) [compound 140] | 100 | 100 | 50 | 100 |  |  |  |  | 
13 | Cc1cccc(Br)c1-n1c(C)nc(Cl)c1C(O)c1ccc(F)cc1Cl (centres unmarked) [compound 336] |  |  |  |  | 72* % | 89* % | 90* % | 97* % | 
14 | Cc1ncc(C(O)c2ccc(F)cc2Br)n1-c1ccc(F)cc1F (racemic) [compound 301] |  |  |  |  | 24* % | 19* % | 0* % | 97* % | 
15 | Cc1ncc(C(O)c2cccnc2F)n1-c1c(F)cc(F)cc1F (centres unmarked) [compound 413] |  |  |  |  |  |  |  |  | Test C rating (% disease control, tomato Botrytis) [1, 7]: 0%; Test B rating (% disease control, wheat leaf blotch) [2, 7]: 98%; Test D rating (% disease control, wheat powdery mildew) [3, 7]: 0%; Test A rating (% disease control, wheat leaf rust) [4, 7]: 88%
16 | COc1ccc(-n2c(C)nc(Br)c2C(O)c2ccc(F)cc2Cl)c(OC)c1 (racemic) [compound 217] |  |  |  |  | 42* % | 0* % | 0* % | 0* % | 
17 | COc1ccc(C(O)c2c(Br)nc(C)n2-c2c(F)cccc2Cl)c(Cl)c1 (racemic) [compound 276] |  |  |  |  | 100* % | 100* % | 100* % | 100* % | 
18 | Cc1nc(Br)c(C(O)c2ccc(C#N)cc2F)n1-c1c(F)cccc1F (centres unmarked) [compound 199] |  |  |  |  | 0* % | 62* % | 0* % | 0* % | 
19 | COc1ccc(C(O)c2c(Br)nc(Cl)n2-c2c(F)cccc2F)c(Cl)c1 (stereo not drawn) [Compound 287, 4-bromo-2-chloro-α-(2-chloro-4-methoxyphenyl)-1-(2,6-difluorophenyl)-1H-imidazole-5-methanol] |  |  |  |  | 100* % | 100* % | 97* % | 100* % | 
20 | COc1ccc(C(O)c2c(Cl)nc(C)n2-c2c(F)cccc2Cl)c(Cl)c1 (racemic) [compound 278] |  |  |  |  | 100* % | 100* % | 97* % | 100* % | 
